From the NIST ThermoML archive (doi:10.1021/acs.jced.6b00526)
Numbers after ± are expanded uncertainties.

Assay: xn = mol fraction of the nth substance listed
Conditions: 100 kPa, Liquid; for mass density: Vibrating tube method; for viscosity: Falling or rolling sphere viscometry

OCCCO [propan-1,3-diol] + O
Conditions	mass density, 288.15 K [kg/m3]	mass density, 293.15 K [kg/m3]	mass density, 298.15 K [kg/m3]	mass density, 303.15 K [kg/m3]	mass density, 308.15 K [kg/m3]	mass density, 313.15 K [kg/m3]	mass density, 318.15 K [kg/m3]	viscosity, 293.15 K [mPa·s]	viscosity, 298.15 K [mPa·s]	viscosity, 303.15 K [mPa·s]
x2 = 0	1056.2 ± 4.3	1053.2 ± 4.3	1049.9 ± 4.3	1046.7 ± 4.3	1043.5 ± 4.3	1040.4 ± 4.2	1037.9 ± 4.2	51.55 ± 8.3	40.8 ± 6.5	32.74 ± 5.3
x2 = 0.0749	–	–	–	–	–	–	–	46.34 ± 7.4	36.93 ± 5.9	29.67 ± 4.8
x2 = 0.1625	1056.2 ± 4.3	1053.1 ± 4.3	1049.7 ± 4.2	1046.4 ± 4.2	1043.1 ± 4.2	1039.9 ± 4.2	1037.4 ± 4.2	40.76 ± 6.5	32.58 ± 5.2	26.38 ± 4.2
x2 = 0.1737	1056.2 ± 4.3	1053.1 ± 4.3	1049.7 ± 4.2	1046.4 ± 4.2	1043.1 ± 4.2	1040 ± 4.2	1037.4 ± 4.2	–	–	–
x2 = 0.2386	1056.4 ± 4.3	1053.3 ± 4.2	1049.9 ± 4.2	1046.6 ± 4.2	1043.2 ± 4.2	1040.1 ± 4.2	1037.5 ± 4.2	–	–	–
x2 = 0.239	–	–	–	–	–	–	–	35.86 ± 5.8	29.01 ± 4.7	23.45 ± 3.8
x2 = 0.2519	1056.5 ± 4.3	1053.4 ± 4.2	1049.9 ± 4.2	1046.6 ± 4.2	1043.3 ± 4.2	1040.1 ± 4.2	1037.5 ± 4.2	–	–	–
x2 = 0.3216	1056.6 ± 4.3	1053.5 ± 4.2	1050.1 ± 4.2	1046.8 ± 4.2	1043.5 ± 4.2	1040.2 ± 4.2	1037.6 ± 4.2	–	–	–
x2 = 0.3361	–	–	–	–	–	–	–	29.72 ± 4.8	24.27 ± 3.9	19.97 ± 3.2
x2 = 0.3669	1056.4 ± 4.2	1053.3 ± 4.2	1050 ± 4.2	1046.7 ± 4.2	1043.3 ± 4.2	1040.1 ± 4.2	1037.5 ± 4.2	–	–	–
x2 = 0.4223	–	–	–	–	–	–	–	24.46 ± 3.9	20.06 ± 3.2	16.66 ± 2.7
x2 = 0.4238	1056 ± 4.2	1053 ± 4.2	1049.6 ± 4.2	1046.4 ± 4.2	1043.1 ± 4.2	1039.9 ± 4.2	1037.3 ± 4.2	–	–	–
x2 = 0.4553	1055.6 ± 4.2	1052.6 ± 4.2	1049.3 ± 4.2	1046.1 ± 4.2	1042.8 ± 4.2	1039.6 ± 4.2	1037 ± 4.2	–	–	–
x2 = 0.5075	1054.7 ± 4.2	1051.8 ± 4.2	1048.5 ± 4.2	1045.3 ± 4.2	1042.1 ± 4.2	1038.9 ± 4.2	1036.2 ± 4.2	–	–	–
x2 = 0.5134	–	–	–	–	–	–	–	19.25 ± 3.1	15.64 ± 2.5	13.18 ± 2.1
x2 = 0.5501	1053.7 ± 4.2	1050.8 ± 4.2	1047.6 ± 4.2	1044.4 ± 4.2	1041.2 ± 4.2	1038 ± 4.2	1035.4 ± 4.1	–	–	–
x2 = 0.6009	1052.1 ± 4.2	1049.2 ± 4.2	1046.1 ± 4.2	1042.9 ± 4.2	1039.7 ± 4.2	1036.5 ± 4.2	1033.9 ± 4.1	–	–	–
x2 = 0.6309	–	–	–	–	–	–	–	13.16 ± 2.1	10.59 ± 1.7	8.95 ± 1.4
x2 = 0.653	1049.9 ± 4.2	1047.1 ± 4.2	1043.9 ± 4.2	1040.8 ± 4.2	1037.6 ± 4.2	1034.4 ± 4.1	1031.8 ± 4.1	–	–	–
x2 = 0.7146	1046.3 ± 4.2	1043.5 ± 4.2	1040.4 ± 4.2	1037.2 ± 4.2	1034 ± 4.1	1030.9 ± 4.1	1028.4 ± 4.1	–	–	–
x2 = 0.7446	–	–	–	–	–	–	–	7.99 ± 1.3	6.43 ± 1	5.46 ± 0.88
x2 = 0.7532	1043.2 ± 4.2	1040.5 ± 4.2	1037.4 ± 4.2	1034.3 ± 4.1	1031.1 ± 4.1	1028.1 ± 4.1	1025.5 ± 4.1	–	–	–
x2 = 0.804	1038.3 ± 4.2	1035.5 ± 4.1	1032.6 ± 4.1	1029.6 ± 4.1	1026.6 ± 4.1	1023.5 ± 4.1	1021.1 ± 4.1	–	–	–
x2 = 0.8508	1032.1 ± 4.1	1029.6 ± 4.1	1026.9 ± 4.1	1024.1 ± 4.1	1021.3 ± 4.1	1018.4 ± 4.1	1016.1 ± 4.1	–	–	–
x2 = 0.872	–	–	–	–	–	–	–	3.72 ± 0.6	3.13 ± 0.5	2.78 ± 0.44
x2 = 0.9021	1023.5 ± 4.1	1021.3 ± 4.1	1018.9 ± 4.1	1016.6 ± 4.1	1014 ± 4.1	1011.4 ± 4	1009.2 ± 4	–	–	–
